Measurements published in ChEMBL document CHEMBL1201862, “PubChem BioAssay data set” (2004).
Activity calls are given as the source filed them.

Tests used:
[1] = molecular target: T1, Histone-lysine N-methyltransferase NSD2 (Homo sapiens, UniProt O96028); format: biochemical
T1 sequence (O96028 whole entry): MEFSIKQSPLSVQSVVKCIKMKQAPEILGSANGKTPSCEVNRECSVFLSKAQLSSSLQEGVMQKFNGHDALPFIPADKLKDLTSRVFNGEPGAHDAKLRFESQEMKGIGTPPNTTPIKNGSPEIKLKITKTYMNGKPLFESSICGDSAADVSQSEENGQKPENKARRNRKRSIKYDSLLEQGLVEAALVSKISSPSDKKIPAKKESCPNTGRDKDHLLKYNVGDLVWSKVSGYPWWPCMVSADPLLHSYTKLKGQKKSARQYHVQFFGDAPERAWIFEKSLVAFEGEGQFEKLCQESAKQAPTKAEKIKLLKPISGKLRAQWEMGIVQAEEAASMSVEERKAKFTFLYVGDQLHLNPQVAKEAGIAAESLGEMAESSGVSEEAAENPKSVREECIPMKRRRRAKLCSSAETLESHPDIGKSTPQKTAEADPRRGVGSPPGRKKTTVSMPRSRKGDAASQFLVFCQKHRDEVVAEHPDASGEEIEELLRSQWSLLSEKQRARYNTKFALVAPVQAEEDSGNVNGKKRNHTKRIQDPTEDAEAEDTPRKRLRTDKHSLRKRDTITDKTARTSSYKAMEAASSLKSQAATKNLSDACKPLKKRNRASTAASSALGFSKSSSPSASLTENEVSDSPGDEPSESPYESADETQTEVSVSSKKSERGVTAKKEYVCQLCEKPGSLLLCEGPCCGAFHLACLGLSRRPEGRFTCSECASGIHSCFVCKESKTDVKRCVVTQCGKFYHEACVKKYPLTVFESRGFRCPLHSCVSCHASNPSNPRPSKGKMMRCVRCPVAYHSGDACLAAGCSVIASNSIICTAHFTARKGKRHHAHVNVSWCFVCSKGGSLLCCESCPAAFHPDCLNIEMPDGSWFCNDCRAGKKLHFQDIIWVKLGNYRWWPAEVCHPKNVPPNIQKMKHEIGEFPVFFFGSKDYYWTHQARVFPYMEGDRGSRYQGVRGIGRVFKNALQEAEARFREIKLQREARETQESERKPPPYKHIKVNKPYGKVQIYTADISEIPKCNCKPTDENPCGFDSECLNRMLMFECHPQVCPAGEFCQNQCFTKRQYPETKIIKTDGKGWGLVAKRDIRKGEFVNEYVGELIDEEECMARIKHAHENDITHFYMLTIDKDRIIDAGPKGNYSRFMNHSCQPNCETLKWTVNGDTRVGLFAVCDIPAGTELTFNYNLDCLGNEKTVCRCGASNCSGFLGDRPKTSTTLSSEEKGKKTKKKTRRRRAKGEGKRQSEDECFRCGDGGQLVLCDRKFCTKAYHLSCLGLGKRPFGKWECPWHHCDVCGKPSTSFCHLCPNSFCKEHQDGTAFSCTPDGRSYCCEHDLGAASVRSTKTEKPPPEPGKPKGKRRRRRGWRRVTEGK

[2] = molecular target: T2, Caspase-3 (Homo sapiens, UniProt P42574); format: functional;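 note: Dose-response selectivity test against caspase-3 for candidate inhibitors of sentrin-specific proteases (SENPs)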
T2 sequence (P42574 whole entry): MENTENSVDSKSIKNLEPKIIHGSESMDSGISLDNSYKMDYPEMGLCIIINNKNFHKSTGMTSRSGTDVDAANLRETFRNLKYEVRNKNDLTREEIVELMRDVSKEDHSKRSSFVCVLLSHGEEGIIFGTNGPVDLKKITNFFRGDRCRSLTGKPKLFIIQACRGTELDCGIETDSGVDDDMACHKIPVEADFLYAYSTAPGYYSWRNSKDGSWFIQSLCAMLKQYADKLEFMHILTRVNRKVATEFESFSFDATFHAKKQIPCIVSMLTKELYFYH

[3] = molecular target: Receptor-type tyrosine-protein kinase FLT3 (Homo sapiens, UniProt P36888); format: functional;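 note: FLT3 was tested as one member of a kinome-wide kinase panel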
Receptor-type tyrosine-protein kinase FLT3, sequence (P36888 whole entry): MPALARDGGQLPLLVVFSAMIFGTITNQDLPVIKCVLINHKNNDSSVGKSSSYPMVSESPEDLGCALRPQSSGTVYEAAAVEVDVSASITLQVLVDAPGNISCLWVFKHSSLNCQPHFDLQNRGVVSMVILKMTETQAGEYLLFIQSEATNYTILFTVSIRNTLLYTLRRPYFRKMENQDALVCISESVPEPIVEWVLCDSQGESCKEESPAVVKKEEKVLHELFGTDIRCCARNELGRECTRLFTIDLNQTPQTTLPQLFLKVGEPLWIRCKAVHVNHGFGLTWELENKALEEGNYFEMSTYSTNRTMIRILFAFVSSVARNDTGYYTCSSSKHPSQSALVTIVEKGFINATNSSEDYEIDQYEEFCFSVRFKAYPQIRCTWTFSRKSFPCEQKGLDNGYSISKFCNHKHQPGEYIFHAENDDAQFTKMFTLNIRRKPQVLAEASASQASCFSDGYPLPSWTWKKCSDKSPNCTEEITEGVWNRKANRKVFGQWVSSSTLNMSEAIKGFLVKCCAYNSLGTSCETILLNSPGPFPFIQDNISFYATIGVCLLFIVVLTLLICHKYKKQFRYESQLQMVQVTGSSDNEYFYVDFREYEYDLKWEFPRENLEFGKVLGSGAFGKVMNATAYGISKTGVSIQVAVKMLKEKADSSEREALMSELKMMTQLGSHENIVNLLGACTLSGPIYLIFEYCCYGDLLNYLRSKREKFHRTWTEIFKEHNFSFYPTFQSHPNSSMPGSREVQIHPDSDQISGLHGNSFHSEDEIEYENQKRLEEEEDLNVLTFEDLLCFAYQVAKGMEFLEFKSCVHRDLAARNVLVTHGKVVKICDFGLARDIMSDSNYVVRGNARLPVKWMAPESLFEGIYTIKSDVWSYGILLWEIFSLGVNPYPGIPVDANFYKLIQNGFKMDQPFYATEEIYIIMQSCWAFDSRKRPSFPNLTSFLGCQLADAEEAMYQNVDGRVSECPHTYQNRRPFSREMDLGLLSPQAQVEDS

[4] = molecular target: Activin receptor type-1 (Homo sapiens, UniProt Q04771); test: Navigating the Kinome. Panel member name: ACVR1; format: functional
Activin receptor type-1, sequence (Q04771 whole entry): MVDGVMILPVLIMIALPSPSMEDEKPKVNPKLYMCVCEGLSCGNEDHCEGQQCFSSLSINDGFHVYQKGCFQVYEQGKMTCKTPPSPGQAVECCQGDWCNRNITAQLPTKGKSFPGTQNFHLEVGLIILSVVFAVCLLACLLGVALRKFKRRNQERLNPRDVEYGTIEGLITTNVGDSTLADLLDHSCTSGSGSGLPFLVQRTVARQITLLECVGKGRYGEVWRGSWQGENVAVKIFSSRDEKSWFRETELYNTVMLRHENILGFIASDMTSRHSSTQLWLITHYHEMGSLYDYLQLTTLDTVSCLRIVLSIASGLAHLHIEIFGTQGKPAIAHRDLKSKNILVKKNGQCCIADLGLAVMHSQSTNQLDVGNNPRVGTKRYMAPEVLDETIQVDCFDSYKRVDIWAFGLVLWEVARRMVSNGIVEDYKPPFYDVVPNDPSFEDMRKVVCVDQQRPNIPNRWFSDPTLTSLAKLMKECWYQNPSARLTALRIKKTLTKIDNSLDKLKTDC

[5] = molecular target: BDNF/NT-3 growth factors receptor (Homo sapiens, UniProt Q16620); format: functional;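 note: NTRK2 measured as one member of a broad kinome-wide kinase profiling panel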
BDNF/NT-3 growth factors receptor, sequence (Q16620 whole entry): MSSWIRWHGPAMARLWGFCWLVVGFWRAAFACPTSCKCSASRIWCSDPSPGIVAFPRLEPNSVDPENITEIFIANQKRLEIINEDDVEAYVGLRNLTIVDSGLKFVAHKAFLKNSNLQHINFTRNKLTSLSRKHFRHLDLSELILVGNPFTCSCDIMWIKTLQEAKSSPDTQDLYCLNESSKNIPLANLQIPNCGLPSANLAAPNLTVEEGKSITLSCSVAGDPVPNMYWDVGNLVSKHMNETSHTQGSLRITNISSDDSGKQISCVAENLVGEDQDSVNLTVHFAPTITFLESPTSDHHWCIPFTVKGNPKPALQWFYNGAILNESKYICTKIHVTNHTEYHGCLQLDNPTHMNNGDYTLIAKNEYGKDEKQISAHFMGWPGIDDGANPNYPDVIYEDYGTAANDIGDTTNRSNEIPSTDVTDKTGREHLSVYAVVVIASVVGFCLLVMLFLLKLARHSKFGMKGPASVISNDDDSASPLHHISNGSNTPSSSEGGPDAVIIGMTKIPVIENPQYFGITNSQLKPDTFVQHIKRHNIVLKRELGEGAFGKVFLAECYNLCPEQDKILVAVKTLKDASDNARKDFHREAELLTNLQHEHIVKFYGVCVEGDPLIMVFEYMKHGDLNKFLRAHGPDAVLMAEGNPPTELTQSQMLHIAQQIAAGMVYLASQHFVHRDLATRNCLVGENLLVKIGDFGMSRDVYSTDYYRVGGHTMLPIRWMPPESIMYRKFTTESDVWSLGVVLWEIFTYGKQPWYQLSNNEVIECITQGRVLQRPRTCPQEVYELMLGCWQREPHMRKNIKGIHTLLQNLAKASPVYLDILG

[6] = molecular target: Serine/threonine-protein kinase Chk1 (Homo sapiens, UniProt O14757); format: functional;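 note: measured as one member of a kinome-wide kinase profiling panel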
Serine/threonine-protein kinase Chk1, sequence (O14757 whole entry): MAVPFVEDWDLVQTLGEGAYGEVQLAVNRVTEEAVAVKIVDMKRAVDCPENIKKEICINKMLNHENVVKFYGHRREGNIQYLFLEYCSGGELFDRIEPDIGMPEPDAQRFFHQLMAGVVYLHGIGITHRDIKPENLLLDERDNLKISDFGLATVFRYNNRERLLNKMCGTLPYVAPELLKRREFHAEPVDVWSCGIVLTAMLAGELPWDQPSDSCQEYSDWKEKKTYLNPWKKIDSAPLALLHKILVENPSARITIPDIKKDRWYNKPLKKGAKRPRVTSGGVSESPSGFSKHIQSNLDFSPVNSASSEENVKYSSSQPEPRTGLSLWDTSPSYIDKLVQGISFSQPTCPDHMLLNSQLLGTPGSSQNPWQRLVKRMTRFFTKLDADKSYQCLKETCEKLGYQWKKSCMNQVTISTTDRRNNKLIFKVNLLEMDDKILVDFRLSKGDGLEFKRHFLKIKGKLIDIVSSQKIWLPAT

[7] = molecular target: Dual specificity protein kinase CLK4 (Homo sapiens, UniProt Q9HAZ1); format: functional
Dual specificity protein kinase CLK4, sequence (Q9HAZ1 whole entry): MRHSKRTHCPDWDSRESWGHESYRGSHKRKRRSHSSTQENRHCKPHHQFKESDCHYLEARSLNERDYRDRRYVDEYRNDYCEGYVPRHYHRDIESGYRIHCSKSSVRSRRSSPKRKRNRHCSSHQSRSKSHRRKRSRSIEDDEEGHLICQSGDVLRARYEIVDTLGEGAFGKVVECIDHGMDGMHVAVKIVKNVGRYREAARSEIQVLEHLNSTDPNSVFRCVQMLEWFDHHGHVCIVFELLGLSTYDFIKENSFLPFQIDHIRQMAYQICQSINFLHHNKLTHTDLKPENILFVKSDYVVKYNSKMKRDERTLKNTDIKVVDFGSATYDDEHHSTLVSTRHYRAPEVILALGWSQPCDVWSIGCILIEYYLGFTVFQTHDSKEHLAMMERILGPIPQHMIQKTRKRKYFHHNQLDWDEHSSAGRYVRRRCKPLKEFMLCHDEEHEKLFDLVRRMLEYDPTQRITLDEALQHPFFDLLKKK

[8] = molecular target: Mitogen-activated protein kinase kinase kinase kinase 4 (Homo sapiens, UniProt O95819); format: functional
Mitogen-activated protein kinase kinase kinase kinase 4, sequence (O95819 whole entry): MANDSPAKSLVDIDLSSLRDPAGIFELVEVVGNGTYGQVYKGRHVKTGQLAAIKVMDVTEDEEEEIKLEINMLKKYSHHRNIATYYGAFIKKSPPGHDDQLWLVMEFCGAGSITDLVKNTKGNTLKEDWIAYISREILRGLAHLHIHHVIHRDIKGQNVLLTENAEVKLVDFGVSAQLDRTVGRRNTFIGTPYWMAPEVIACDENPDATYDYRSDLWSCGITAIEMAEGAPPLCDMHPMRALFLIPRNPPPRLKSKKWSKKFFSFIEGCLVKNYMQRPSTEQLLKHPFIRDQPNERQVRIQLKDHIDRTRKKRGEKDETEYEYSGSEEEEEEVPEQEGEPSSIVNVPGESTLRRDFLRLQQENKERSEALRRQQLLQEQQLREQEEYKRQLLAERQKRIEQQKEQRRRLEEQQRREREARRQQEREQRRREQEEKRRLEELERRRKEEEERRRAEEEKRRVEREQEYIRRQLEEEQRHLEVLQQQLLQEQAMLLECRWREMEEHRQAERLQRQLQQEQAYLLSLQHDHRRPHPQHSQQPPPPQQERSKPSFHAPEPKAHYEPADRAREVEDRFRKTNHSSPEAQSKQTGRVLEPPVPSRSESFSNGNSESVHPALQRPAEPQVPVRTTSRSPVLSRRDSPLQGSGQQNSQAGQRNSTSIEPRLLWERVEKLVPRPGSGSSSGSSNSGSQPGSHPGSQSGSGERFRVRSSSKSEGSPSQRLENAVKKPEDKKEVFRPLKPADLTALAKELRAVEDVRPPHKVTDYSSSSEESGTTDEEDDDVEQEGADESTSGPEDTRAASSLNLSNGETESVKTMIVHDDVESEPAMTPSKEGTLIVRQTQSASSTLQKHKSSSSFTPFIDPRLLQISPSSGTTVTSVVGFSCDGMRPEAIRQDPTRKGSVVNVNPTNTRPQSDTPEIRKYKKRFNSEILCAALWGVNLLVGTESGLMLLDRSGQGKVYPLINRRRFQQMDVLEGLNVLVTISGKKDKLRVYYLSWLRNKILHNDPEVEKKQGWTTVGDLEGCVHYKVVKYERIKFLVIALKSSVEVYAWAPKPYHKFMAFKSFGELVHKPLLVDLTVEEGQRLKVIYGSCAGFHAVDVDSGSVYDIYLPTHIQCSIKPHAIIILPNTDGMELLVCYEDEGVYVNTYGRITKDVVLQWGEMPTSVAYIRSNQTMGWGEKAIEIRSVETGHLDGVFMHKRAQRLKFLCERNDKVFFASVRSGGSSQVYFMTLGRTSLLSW

[9] = molecular target: T3, Insulin-degrading enzyme (Homo sapiens, UniProt P14735); test: activators of endogenous IDE in HEK cells, dose response, cell-based, fluorescence polarization (AID 588439); format: functional
T3 sequence (P14735 whole entry): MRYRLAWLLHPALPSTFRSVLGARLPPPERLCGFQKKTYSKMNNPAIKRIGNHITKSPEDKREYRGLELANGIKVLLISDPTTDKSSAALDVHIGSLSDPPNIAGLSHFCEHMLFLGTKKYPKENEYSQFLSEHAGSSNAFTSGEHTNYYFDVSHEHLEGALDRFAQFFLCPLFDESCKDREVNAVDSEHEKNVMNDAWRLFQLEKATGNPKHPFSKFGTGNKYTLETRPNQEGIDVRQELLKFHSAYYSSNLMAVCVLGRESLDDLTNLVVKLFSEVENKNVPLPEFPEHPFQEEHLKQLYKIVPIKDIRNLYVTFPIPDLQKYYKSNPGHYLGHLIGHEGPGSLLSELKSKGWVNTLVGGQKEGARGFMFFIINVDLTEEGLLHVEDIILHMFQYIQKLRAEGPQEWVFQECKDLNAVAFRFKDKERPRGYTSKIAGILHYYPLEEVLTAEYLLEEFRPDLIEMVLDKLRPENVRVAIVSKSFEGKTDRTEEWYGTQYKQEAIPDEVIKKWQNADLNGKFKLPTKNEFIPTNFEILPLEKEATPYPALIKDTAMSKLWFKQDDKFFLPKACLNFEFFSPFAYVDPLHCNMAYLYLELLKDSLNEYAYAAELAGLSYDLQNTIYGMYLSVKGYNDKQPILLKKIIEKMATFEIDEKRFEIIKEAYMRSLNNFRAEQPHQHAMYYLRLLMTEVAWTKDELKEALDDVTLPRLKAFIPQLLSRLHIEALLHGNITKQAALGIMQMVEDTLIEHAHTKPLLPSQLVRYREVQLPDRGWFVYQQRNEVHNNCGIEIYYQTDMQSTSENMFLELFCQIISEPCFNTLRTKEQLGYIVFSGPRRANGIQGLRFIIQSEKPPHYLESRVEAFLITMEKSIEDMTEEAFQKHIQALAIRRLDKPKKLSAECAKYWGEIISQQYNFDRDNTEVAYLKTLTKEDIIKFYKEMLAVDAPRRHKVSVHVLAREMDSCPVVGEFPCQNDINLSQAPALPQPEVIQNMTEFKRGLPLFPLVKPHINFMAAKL

IC50 [2] | Ki [3] | Ki [4] | Ki [5] | Ki [6] | Ki [7] | Ki [8] | Compound | AC50 [1] | EC50 [9]
> 100 µM (inactive) |  |  |  |  |  |  | O=C(NNc1cc(N2CCCC2)nc(N2CCCC2)n1)c1ccc([N+](=O)[O-])cc1 | 13.7 µM (active) | 
 | > 3.16 µM (inactive) | 3.16 µM (active) | > 3.98 µM (inactive) | 0.316 µM (active) | 0.501 µM (active) | > 5.01 µM (inactive) | O=C(Cc1cccs1)Nc1nc2ccccc2s1 |  | 
 |  |  |  |  |  |  | O=S(=O)(O)c1cccc2c(N=Nc3ccc(O)c4ncccc34)cccc12 | 7.57 µM (active) | 8.8 µM (active)
